From patent publication US10941157B2, “Pesticidal compositions and uses thereof” (Gilead Apollo, LLC, priority 2015, dated 2021)
Converted amounts (≈) assume the structure as drawn. Like-named read-outs stand apart in the source and are kept apart here.

Key:
Rhizoctonia solani (Rs) = test: In vitro pathogen growth inhibition assay, Rs (mycelial plugs); assay type: cell-based; details: Rhizoctonia solani, 48 h, mycelial plugs
In short: (§1)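 Value reported is the compound concentration reaching ≥90% growth inhibition, from OD readings at 24 and 48 h after blank subtraction, confirmed visually. Inoculum was spores diluted in 17% V8 medium, except Rs, using 1.5 mm mycelial plugs in ¼ PDB; actual compound concentration corrected via OD600.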

[1] = tested on: Fusarium virguliforme (Fv); test: In vitro pathogen growth inhibition assay, Fv; assay type: cell-based
In short: as §1

Fusarium graminearum = assay type: in vivo; details: spray on flowering Triticum aestivum cv. Samson, inoculated 24 hours after treatment, evaluated 14 days later
Puccinia triticina = test: Foliar protection test for wheat leaf rust control; assay type: in vivo; details: foliar application to wheat (Triticum aestivum cv. Winterhawk), evaluated 10 days later
[2] = tested on: Fusarium moniliforme (Fm); test: In vitro pathogen growth inhibition assay, Fm; assay type: cell-based; details: Fusarium verticillioides
In short: as §1

Botrtyis cinerea (Bc) = test: In vitro pathogen growth inhibition assay, Bc; assay type: cell-based; details: 48 h
In short: as §1

Septoria tritici (St) = test: In vitro pathogen growth inhibition assay, St; assay type: cell-based; details: Zymoseptoria tritici, 48 h
In short: as §1

Diplodia maydis (Dm) = test: In vitro pathogen growth inhibition assay, Dm; assay type: cell-based; details: Stenocarpella maydis, 48 h
In short: as §1

[3] = tested on: Collectotrichum graminicola (Cg); test: In vitro pathogen growth inhibition assay, Cg; assay type: cell-based; details: 48 h
In short: as §1

Phakopsora pachyrhizi = test: Foliar protection test for Asian soybean rust control; assay type: in vivo; details: foliar application to soybean (Glycine max AG4832), percent disease area evaluated 14 days later
[4] = tested on: Mycosphaerella graminicola (synthetic Septoria tritici); test: Foliar protection test for wheat septoria leaf blotch control; assay type: in vivo; details: foliar spray on Triticum aestivum cv. WinterHawk, inoculated 1 hour after treatment, evaluated 16 days later
Sphaerotheca fuliginea = test: Foliar protection for cucumber powdery mildew control; assay type: in vivo; details: foliar spray on Cucumis sativus cv. Straight Eight, inoculated 24 hours after treatment, evaluated 7 days later
In short: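 Protective foliar spray on 10-day-old Straight Eight cucumbers, with S. fuliginea spores dusted from infected stock plants 24 h after treatment. Disease developed at 23–27 °C, 60% RH and a 16 h photoperiod. Leaves were rated for mildew growth after 7 days; test rates 10 ppm or below.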

[5] = tested on: Blumeria graminis f. sp. hordei; test: Foliar protection test for barley powdery mildew control; assay type: in vivo; details: foliar spray on Hordeum vulgare cv. Perry, inoculated 24 hours after treatment, evaluated 7 days later
In short: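 Protective foliar test: compound atomized onto both leaf surfaces of 6-day-old Hordeum vulgare cv. Perry, followed after 24 h by spore-cloud inoculation from colonized untreated plants. Disease rated on leaves 7 days on, plants held at 20 to 22° C and 70% RH.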

[6] = tested on: Phytophthora capsici (Pc); test: In vitro pathogen growth inhibition assay, Pc; assay type: cell-based; details: 48 h
In short: as §1

[7] = ≥90% growth inhibition, 48 hours, vs 2% DMSO control, read-out: Compound Concentration (ppm) sufficient for ≥90% inhibition of Rs
[8] = ≥90% growth inhibition, 48 hours, vs 2% DMSO control, read-out: Compound Concentration (ppm) sufficient for ≥90% inhibition of Fv
[9] = ≥90% growth inhibition, 48 hours, vs 2% DMSO control, read-out: Compound Concentration (ppm) sufficient for ≥90% inhibition of Fm
[10] = ≥90% growth inhibition, 48 hours, vs 2% DMSO control, read-out: Compound Concentration (ppm) sufficient for ≥90% inhibition of Bc
[11] = ≥90% growth inhibition, 48 hours, vs 2% DMSO control, read-out: Compound Concentration (ppm) sufficient for ≥90% inhibition of St
[12] = ≥90% growth inhibition, 48 hours, vs 2% DMSO control, read-out: Compound Concentration (ppm) sufficient for ≥90% inhibition of Dm
[13] = ≥90% growth inhibition, 48 hours, vs 2% DMSO control, read-out: Compound Concentration (ppm) sufficient for ≥90% inhibition of Cg
[14] = ≥90% growth inhibition, 48 hours, vs 2% DMSO control, read-out: Compound Concentration (ppm) sufficient for ≥90% inhibition of Pc

COc1ccc(F)cc1[C@H](Cn1c(=O)n([C@@H](C)C(=O)N(C)C(C)C)c(=O)c2c(C)c(-n3nccn3)sc21)OCCO [Compound I-089, (S)-2-(1-((R)-2-(5-fluoro-2-methoxyphenyl)-2-(2-hydroxyethoxy)ethyl)-5-methyl-2,4-dioxo-6-(2H-1,2,3-triazol-2-yl)-1,4-dihydrothieno[2,3-d]pyrimidin-3 (2H)-yl)-N-isopropyl-N-methylpropanamide]
IC90 (Rhizoctonia solani (Rs); ≥90% inhibition, 48 hours vs 2% DMSO control, read-out: Compound Concentration (ppm) sufficient for ≥90% inhibition of growth, Rs): 0.08 µg/mL (≈ 0.136 µM)
IC90 ([1]; ≥90% inhibition, 48 hours vs 2% DMSO control, read-out: Compound Concentration (ppm) sufficient for ≥90% inhibition of growth, Fv): > 0.4 µg/mL
Wheat Fusarium Head Blight Control at a compound concentration of 25 ppm or lower (Fusarium graminearum): D (<25% control of wheat fusarium head blight)
Wheat Leaf Rust Control at a compound concentration of 10 ppm or lower (Puccinia triticina): AA (≥85% control of wheat leaf rust)
IC90 ([2]; ≥90% inhibition, 48 hours vs 2% DMSO control, read-out: Compound Concentration (ppm) sufficient for ≥90% inhibition of growth, Fm): 0.08 µg/mL (≈ 0.136 µM)
IC90 (Botrtyis cinerea (Bc); ≥90% inhibition, 48 hours vs 2% DMSO control, read-out: Compound Concentration (ppm) sufficient for ≥90% inhibition of growth, Bc): > 0.4 µg/mL
IC90 (Septoria tritici (St); ≥90% inhibition, 48 hours vs 2% DMSO control, read-out: Compound Concentration (ppm) sufficient for ≥90% inhibition of growth, St): ≥ 10 µg/mL
IC90 (Diplodia maydis (Dm); ≥90% inhibition, 48 hours vs 2% DMSO control, read-out: Compound Concentration (ppm) sufficient for ≥90% inhibition of growth, Dm): 2 µg/mL (≈ 3.4 µM)
IC90 ([3]; ≥90% inhibition, 48 hours vs 2% DMSO control, read-out: Compound Concentration (ppm) sufficient for ≥90% inhibition of growth, Cg): > 0.4 µg/mL
Asian Soybean Rust Control at a compound concentration of 25 ppm or lower (Phakopsora pachyrhizi): A (from 70% to 84% control of Asian soybean rust)
Septoria Leaf Blotch Control at a compound concentration of 25 ppm or lower [4]: C (from 25 to 49% control of wheat septoria leaf blotch)
Cucumber Powdery Mildew Control at a compound concentration of 10 ppm or lower (Sphaerotheca fuliginea): AA (≥85% control of cucumber powdery mildew)
Barley Powdery Mildew Control at a compound concentration of 10 ppm or lower [5]: B (from 50 to 69% control of barley powdery mildew)
IC90 ([6]; ≥90% inhibition, 48 hours vs 2% DMSO control, read-out: Compound Concentration (ppm) sufficient for ≥90% inhibition of growth, Pc): ≥ 50 µg/mL

CCOC(=O)c1sc2c(c1C)c(=O)n([C@H](C)C(=O)N(C)C(C)C)c(=O)n2C[C@H](OCCC#N)c1cc(F)ccc1OC [Compound I-229, (R)-ethyl-1-(2-(2-cyanoethoxy)-2-(5-fluoro-2-methoxyphenyl)ethyl)-3-((R)-1-(isopropyl(methyl)amino)-1-oxopropan-2-yl)-5-methyl-2,4-dioxo-1,2,3,4-tetrahydrothieno[2,3-d]pyrimidine-6-carboxylate]
IC90 (Rhizoctonia solani (Rs); [7]): 2 µg/mL (≈ 3.32 µM)
IC90 [1, 8]: 0.4 µg/mL (≈ 0.664 µM)
Wheat Fusarium Head Blight Control at a compound concentration of 25 ppm or lower (Fusarium graminearum): C (from 25 to 49% control of wheat fusarium head blight)
Wheat Leaf Rust Control at a compound concentration of 10 ppm or lower (Puccinia triticina): B (from 50 to 69% control of wheat leaf rust)
IC90 [2, 9]: 0.08 µg/mL (≈ 0.133 µM)
IC90 (Botrtyis cinerea (Bc); [10]): 2 µg/mL (≈ 3.32 µM)
IC90 (Septoria tritici (St); [11]): > 50 µg/mL
IC90 (Diplodia maydis (Dm); [12]): 2 µg/mL (≈ 3.32 µM)
IC90 [3, 13]: 2 µg/mL (≈ 3.32 µM)
Asian Soybean Rust Control at a compound concentration of 25 ppm or lower (Phakopsora pachyrhizi): C (from 25 to 49% control of Asian soybean rust)
Septoria Leaf Blotch Control at a compound concentration of 25 ppm or lower [4]: D (<25% control of wheat septoria leaf blotch)
Cucumber Powdery Mildew Control at a compound concentration of 10 ppm or lower (Sphaerotheca fuliginea): AA (≥85% control of cucumber powdery mildew)
Barley Powdery Mildew Control at a compound concentration of 10 ppm or lower [5]: AA (≥85% control of barley powdery mildew)
IC90 [6, 14]: > 50 µg/mL

CCOC(=O)c1sc2c(c1C)c(=O)n(C(C)(C)C(=O)NC(C)C)c(=O)n2C[C@H](OC[C@H](C)C#N)c1cc(F)ccc1OC [Compound I-259, (R)-ethyl-1-(2-((R)-2-cyanopropoxy)-2-(5-fluoro-2-methoxyphenyl)ethyl)-3-(1-(isopropylamino)-2-methyl-1-oxopropan-2-yl)-5-methyl-2,4-dioxo-1,2,3,4-tetrahydrothieno[2,3-d]pyrimidine-6-carboxylate]
IC90 (Rhizoctonia solani (Rs); [7]): 0.08 µg/mL (≈ 0.13 µM)
IC90 [1, 8]: 0.4 µg/mL (≈ 0.649 µM)
Wheat Fusarium Head Blight Control at a compound concentration of 25 ppm or lower (Fusarium graminearum): B (from 50 to 69% control of wheat fusarium head blight)
Wheat Leaf Rust Control at a compound concentration of 10 ppm or lower (Puccinia triticina): C (from 25 to 49% control of wheat leaf rust)
IC90 [2, 9]: 0.08 µg/mL (≈ 0.13 µM)
IC90 (Botrtyis cinerea (Bc); [10]): 0.4 µg/mL (≈ 0.649 µM)
IC90 (Septoria tritici (St); [11]): > 10 µg/mL
IC90 (Diplodia maydis (Dm); [12]): 0.4 µg/mL (≈ 0.649 µM)
IC90 [3, 13]: 0.08 µg/mL (≈ 0.13 µM)
Asian Soybean Rust Control at a compound concentration of 25 ppm or lower (Phakopsora pachyrhizi): B (from 50 to 69% control of Asian soybean rust)
Septoria Leaf Blotch Control at a compound concentration of 25 ppm or lower [4]: C (from 25 to 49% control of wheat septoria leaf blotch)
Cucumber Powdery Mildew Control at a compound concentration of 10 ppm or lower (Sphaerotheca fuliginea): AA (≥85% control of cucumber powdery mildew)
Barley Powdery Mildew Control at a compound concentration of 10 ppm or lower [5]: A (from 70% to 84% control of barley powdery mildew)
IC90 [6, 14]: > 50 µg/mL

CCc1ccc(F)cc1[C@H](Cn1c(=O)n(C(C)(C)C(=O)NC(C)C)c(=O)c2c(C)c(-n3nccn3)sc21)OC[C@H](C)C#N [Compound I-284, 2-(1-((R)-2-((R)-2-cyanopropoxy)-2-(2-ethyl-5-fluorophenyl)ethyl)-5-methyl-2,4-dioxo-6-(2H-1,2,3-triazol-2-yl)-1,4-dihydrothieno[2,3-d]pyrimidin-3 (2H)-yl)-N-isopropyl-2-methylpropanamide]
IC90 (Rhizoctonia solani (Rs); [7]): 0.08 µg/mL (≈ 0.131 µM)
IC90 [1, 8]: 0.4 µg/mL (≈ 0.656 µM)
Wheat Fusarium Head Blight Control at a compound concentration of 25 ppm or lower (Fusarium graminearum): C (from 25 to 49% control of wheat fusarium head blight)
Wheat Leaf Rust Control at a compound concentration of 10 ppm or lower (Puccinia triticina): AA (≥85% control of wheat leaf rust)
IC90 [2, 9]: 0.08 µg/mL (≈ 0.131 µM)
IC90 (Botrtyis cinerea (Bc); [10]): 0.4 µg/mL (≈ 0.656 µM)
IC90 (Septoria tritici (St); [11]): > 50 µg/mL
IC90 (Diplodia maydis (Dm); [12]): 2 µg/mL (≈ 3.28 µM)
IC90 [3, 13]: 0.08 µg/mL (≈ 0.131 µM)
Asian Soybean Rust Control at a compound concentration of 25 ppm or lower (Phakopsora pachyrhizi): B (from 50 to 69% control of Asian soybean rust)
Septoria Leaf Blotch Control at a compound concentration of 25 ppm or lower [4]: AA (≥85% control of wheat septoria leaf blotch)
Cucumber Powdery Mildew Control at a compound concentration of 10 ppm or lower (Sphaerotheca fuliginea): AA (≥85% control of cucumber powdery mildew)
Barley Powdery Mildew Control at a compound concentration of 10 ppm or lower [5]: AA (≥85% control of barley powdery mildew)
IC90 [6, 14]: > 50 µg/mL

COc1ccc(F)cc1[C@H](Cn1c(=O)n(C(C)(C)C(=O)NC2CCC2)c(=O)c2c(C)c(-n3cccn3)sc21)OCCC#N [Compound I-307, (R)-2-(1-(2-(2-cyanoethoxy)-2-(5-fluoro-2-methoxyphenyl)ethyl)-5-methyl-2,4-dioxo-6-(1H-pyrazol-1-yl)-1,4-dihydrothieno[2,3-d]pyrimidin-3 (2H)-yl)-N-cyclobutyl-2-methylpropanamide]
IC90 (Rhizoctonia solani (Rs); [7]): 0.08 µg/mL (≈ 0.131 µM)
IC90 [1, 8]: 0.4 µg/mL (≈ 0.657 µM)
Wheat Fusarium Head Blight Control at a compound concentration of 25 ppm or lower (Fusarium graminearum): C (from 25 to 49% control of wheat fusarium head blight)
Wheat Leaf Rust Control at a compound concentration of 10 ppm or lower (Puccinia triticina): AA (≥85% control of wheat leaf rust)
IC90 [2, 9]: 0.08 µg/mL (≈ 0.131 µM)
IC90 (Botrtyis cinerea (Bc); [10]): ≥ 0.4 µg/mL
IC90 (Septoria tritici (St); [11]): > 50 µg/mL
IC90 (Diplodia maydis (Dm); [12]): 2 µg/mL (≈ 3.29 µM)
IC90 [3, 13]: 2 µg/mL (≈ 3.29 µM)
Asian Soybean Rust Control at a compound concentration of 25 ppm or lower (Phakopsora pachyrhizi): C (from 25 to 49% control of Asian soybean rust)
Septoria Leaf Blotch Control at a compound concentration of 25 ppm or lower [4]: B (from 50 to 69% control of wheat septoria leaf blotch)
Cucumber Powdery Mildew Control at a compound concentration of 10 ppm or lower (Sphaerotheca fuliginea): AA (≥85% control of cucumber powdery mildew)
Barley Powdery Mildew Control at a compound concentration of 10 ppm or lower [5]: AA (≥85% control of barley powdery mildew)
IC90 [6, 14]: > 50 µg/mL
